101 compounds from PubChem BioAssay AID1552 (Sanford-Burnham Center for Chemical Genomics, 2009) can be followed below.

Active and inactive are the calls of the source. The rule behind the calls is not given here. Some results are limits rather than exact numbers.

The assay concerns the target Ubiquitin-conjugating enzyme E2 N (Homo sapiens) (UniProt P61088). Put plainly: UBE2N binders by NMR, biophysical, purified protein (AID 1552). To be noted: NMR binding to purified UBE2N.

Sequence of Ubiquitin-conjugating enzyme E2 N (Homo sapiens) (P61088 whole entry, looked up): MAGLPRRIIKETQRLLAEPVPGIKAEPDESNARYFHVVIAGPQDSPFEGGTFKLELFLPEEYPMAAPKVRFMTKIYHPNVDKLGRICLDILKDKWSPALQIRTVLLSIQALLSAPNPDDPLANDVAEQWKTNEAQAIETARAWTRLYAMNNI

Take `CSc1ccccc1NC(=O)c1ccc(C)o1`: the Kd – broadly, the constant that tells how readily two partners part at equilibrium – is > 4 mM (inactive). Turning to `Cc1ccc(Nc2nnns2)cc1C`, the Kd is > 4 mM (inactive). The same measure for `CC1CN(C(=O)c2ccncc2)CC(C)O1` (stereo unspecified): > 4 mM (inactive); for `CC(=O)O[C@H]1CCC2(C)C3=C(CCC2C1(C)C)[C@@]1(C)CC[C@@H](C(C)CCC=C(C)C)[C@]1(C)CC3` (stereo partly specified): > 4 mM (inactive). Then `CN(C)CC(O)C1CCOC(C)(C)C1` (stereo unspecified), with > 4 mM (inactive); and `CCOC(=O)c1cc(C)[nH]n1`, with > 4 mM (inactive). `Cc1ccc(C(=O)N2CCC(C(N)=O)CC2)c(Cl)c1`: the Kd is > 4 mM (inactive).

Turning to `Oc1ccccc1N1CCCC1`, the Kd was > 4 mM (inactive).

Turning to `CC1(C)NCCN2C(=O)CSC21` (stereo unspecified), the Kd is > 4 mM (inactive). Then `CC(=O)NC(=S)Nc1ccccc1C(N)=O`, with > 4 mM (inactive); and `Cc1oc(-c2ccccc2)cc1CO`, with > 4 mM (inactive).

As to `Cc1cc(NC(=O)c2cnn3cccnc23)no1`, the Kd is > 4 mM (inactive).

Turning to `Nc1cc2ccccc2cn1`, the Kd was > 4 mM (inactive). On to `CN1C2C[C@H](OC(=O)[C@H](CO)c3ccccc3)C[C@H]1[C@@H](O)C2`, for which the Kd was > 4 mM (inactive). In the case of `Cn1cnc2c(Cl)ncnc21`, the Kd is > 4 mM (inactive). Turning to `COC(=O)C[C@H]1C(C)(C)C(=O)[C@@H]2CC3=C(CC[C@]4(C)C3=CC(=O)O[C@H]4c3ccoc3)C1(C)C2=O`, the Kd was > 4 mM (inactive).

As to `CC(=O)Nc1cc(N2C(=O)C=CC2=O)ccc1Cl`, the Kd was > 4 mM (inactive). With `O=c1[nH]cc(S(=O)(=O)N2CCc3ccccc32)c(=O)[nH]1`, the Kd was > 4 mM (inactive). For `CCOc1ccc(-c2n[nH]c(=S)n2C)cc1`, the Kd was > 4 mM (inactive). The same measure for `NC1=NC(=O)/C(=C/c2cccs2)S1`: > 4 mM (inactive). The same measure for `CC(=O)OC1CCC2(C)C(=CC=C3C2CCC2(C)C3CCC2C(C)/C=C/C(C)C(C)C)C1(C)C` (stereo unspecified): > 4 mM (inactive); for `COc1ccc2nc(N)sc2c1`: > 4 mM (inactive). Take `COc1ccc2c(c1)O[C@H]1c3ccc(OC)cc3OC[C@@H]21`: the Kd is > 4 mM (inactive). Regarding `O=C(O)CCCCCCCCCCCCC1C=CCC1` (stereo unspecified), the Kd is > 4 mM (inactive). The same measure for `COn1c(=O)c(C)[n+]([O-])c2ccccc21`: > 4 mM (inactive); for `CC(=O)Oc1cccc2ccc(=O)[nH]c12`: > 4 mM (inactive). The same measure for `Oc1ccccc1C(=S)N1CCCCCC1`: > 4 mM (inactive). In the case of `COC(=O)[C@@H]1OC(=O)C2OC23[C@@]1(C)CCC1[C@]2(C)C(C[C@H](O)[C@]13C)C(C)(C)[C@H](OC(C)=O)C[C@@H]2OC(C)=O` (stereo partly specified), the Kd was > 4 mM (inactive).

In the case of `O=C(Nc1ccccc1)N1CCOCC1`, the Kd was > 4 mM (inactive). Then `Cc1cc(=O)[nH]c(N2CCCCC2)n1`, with > 4 mM (inactive); and `CNC(C)[C@H](O)c1ccccc1` (stereo partly specified), with > 4 mM (inactive). As for `COC(=O)C1=CO[C@@H](O[C@@H]2O[C@H](CO)[C@@H](O)[C@H](O)[C@H]2O)[C@@H]2[C@@H](C)[C@@H](O)C[C@H]12`, the Kd was > 4 mM (inactive). `Cc1nn2c(=O)c(NC(=O)c3ccccc3)cnc2s1`: the Kd was > 4 mM (inactive). As to `CN1CCN(C(=O)c2cc(-c3ccccc3)on2)CC1`, the Kd is > 4 mM (inactive). On to `CP(C)(=O)c1cccc(C(=O)O)c1`, for which the Kd is > 4 mM (inactive). Then `CC(=O)N1CCc2cc(NC(=O)c3ccc(C)cc3)ccc21`, with > 4 mM (inactive); and `c1ccc(Cc2nnc3sc(-c4ccccn4)nn23)cc1`, with > 4 mM (inactive); and `Fc1ccc(Br)cc1/C=N/n1cnnc1`, with > 4 mM (inactive). `Nn1cnn2c(SCc3ccccc3)nnc12`: the Kd was > 4 mM (inactive).

For `Cc1cc(C(F)(F)F)nn1CC(N)=O`, the Kd was > 4 mM (inactive). Consider `CC1(C)NC(=O)N(CCOc2ccc3c(c2)CCC3)C1=O`, for which the Kd is > 4 mM (inactive). Consider `Cc1cc(Oc2ccccc2)nc(N)n1`, for which the Kd was > 4 mM (inactive). Then `COC(=O)CCSCC(=O)Nc1nnc(C)s1`, with > 4 mM (inactive); and `COc1cc(O)cc(/C=C/c2ccccc2)c1`, with > 4 mM (inactive); and `CNC(Cc1c[nH]c2ccccc12)C(=O)O` (stereo unspecified), with > 4 mM (inactive).

Take `NC1=NCc2ccccc21`: the Kd was > 4 mM (inactive). `c1ccc(Cc2nnc3sc(-c4cccnc4)nn23)cc1`: the Kd is > 4 mM (inactive). Then `NC(=O)Nc1cccc(C(F)(F)F)c1`, with > 4 mM (inactive); and `NC(=O)CSc1nnc(-c2cccnc2)o1`, with > 4 mM (inactive). Regarding `CC(C)CCn1cnc2c1c(=O)n(C)c(=O)n2C`, the Kd was > 4 mM (inactive). The same measure for `CCC(C)C(=O)OC1[C@@H]2CC3=C4CC(=O)O[C@@H](c5ccoc5)[C@]4(C)CCC3C(C)(C2=O)[C@@H](CC(=O)OC)C1(C)C` (stereo partly specified): > 4 mM (inactive); for `S=C=NCc1ccccc1`: > 4 mM (inactive); for `O=C(O)Cc1csc(-c2ccccc2)n1`: > 4 mM (inactive). The same measure for `CC(=O)Nc1ccc(Nc2nnc(C)c(=O)[nH]2)cc1`: > 4 mM (inactive); for `S=c1nc(C2CC2)[nH]c2ccccc12`: > 4 mM (inactive); for `NC(Cc1c[nH]c2ccccc12)C(=O)O` (stereo unspecified): > 4 mM (inactive). Take `c1cncc(-c2nnc(-c3cccnc3)nn2)c1`: the Kd was > 4 mM (inactive).

With `O=C(CS(=O)(=O)c1ccccc1)N1CCCCCC1`, the Kd was > 4 mM (inactive). Then `Cc1ccccc1CSc1nncn1N`, with > 4 mM (inactive); and `CCc1c(C(=O)Nc2ccncc2)csc1C`, with > 4 mM (inactive); and `O=C(O)CCS(=O)(=O)c1ccccc1`, with > 4 mM (inactive).

As to `CCOC(=O)C1=C(O)CCN(C)C1`, the Kd was > 4 mM (inactive).

Consider `COc1cc(NC(=O)c2ccccc2)c(C)cc1N`, for which the Kd is > 4 mM (inactive). Then `CN(C)N1C(=O)c2ccccc2C1=O`, with > 4 mM (inactive); and `Nc1ncnc(Cl)c1[N+](=O)[O-]`, with > 4 mM (inactive). In the case of `C[C@@H]1CC[C@@]2(NC1)O[C@H]1C[C@H]3C4CC=C5C[C@@H](O)CC[C@]5(C)C4CC[C@]3(C)C1[C@@H]2C` (stereo partly specified), the Kd is > 4 mM (inactive). Then `CC(C)=CCc1c2c(c3occ(-c4ccc(O)cc4)c(=O)c3c1O)C=CC(C)(C)O2`, with > 4 mM (inactive); and `NC(=S)NC1CCS(=O)(=O)C1` (stereo unspecified), with > 4 mM (inactive); and `O=C(NN1CCOCC1)c1ccccc1F`, with > 4 mM (inactive). As to `CCOC(=O)CC1Sc2ccccc2NC1=S` (stereo unspecified), the Kd is > 4 mM (inactive). The same measure for `O=C(CN1C(=O)c2cccc3cccc(c23)C1=O)NO`: > 4 mM (inactive); for `O=C(NC1=NCCS1)c1csc2ccccc12`: > 4 mM (inactive); for `NC(=NCCC[C@H](N)C(=O)O)NC(CCC(=O)O)C(=O)O` (stereo partly specified): > 4 mM (inactive). Regarding `CNS(=O)(=O)c1cc(OC)ccc1OC`, the Kd is > 4 mM (inactive).

`CCOC(=O)c1csc(N)n1`: the Kd is > 4 mM (inactive). The same measure for `COc1ccc(/C=C2/SC(N)=NC2=O)c(OC)c1`: > 4 mM (inactive). The same measure for `N#Cc1nc(-c2cccs2)oc1N1CCOCC1`: > 4 mM (inactive); for `CN1C2CC[C@@H]1CC(OC(=O)[C@H](CO)c1ccccc1)C2` (stereo partly specified): > 4 mM (inactive); for `CC1(C)CC[C@]2(C(=O)O)CC[C@]3(C)C(=CCC4[C@@]5(C)CC[C@H](O)[C@@](C)(CO)C5CC[C@]43C)C2C1` (stereo partly specified): > 4 mM (inactive). In the case of `O=C(NC1CC1)c1ccccc1[N+](=O)[O-]`, the Kd is > 4 mM (inactive). With `CN1CC(=O)Nc2ccc([N+](=O)[O-])cc2C1=O`, the Kd is > 4 mM (inactive). On to `C[n+]1cc2c3c(ccc2c2ccc4cc5c(cc4c21)OCO5)OCO3`, for which the Kd is > 4 mM (inactive).

As to `CSc1ccccc1NC(=O)c1ccncc1`, the Kd is > 4 mM (inactive). For `Cc1ccc2cc(C(=O)O)ccc2n1`, the Kd is > 4 mM (inactive). Regarding `Cc1ccccc1NC(=O)CSc1ccnc(=O)[nH]1`, the Kd was > 4 mM (inactive). Then `Nc1ncnc(NCc2cccnc2)c1[N+](=O)[O-]`, with > 4 mM (inactive); and `CC(=O)OCC[C@H](C)CCC=C(C)C`, with > 4 mM (inactive); and `O=S(=O)(N1CCCCC1)n1nnc2ccccc21`, with > 4 mM (inactive). With `CC1(C)C(=O)N(O)C(C)(C)C(=O)N1O`, the Kd is > 4 mM (inactive). For `COC(=O)c1cc(-c2c(C)nn(-c3ccccc3)c2C)n[nH]1`, the Kd was > 4 mM (inactive). The same measure for `O=C(NCc1cccs1)c1ccncc1`: > 4 mM (inactive); for `Cc1cc([N+](=O)[O-])cc[n+]1[O-]`: > 4 mM (inactive). `COC(=O)CC1NC2CCCCC2NC1=O` (stereo unspecified): the Kd was > 4 mM (inactive). For the compound `O=c1nc(N2CCCCC2)nc2n1CCO2`, the Kd was > 4 mM (inactive). Regarding `Cc1ccccc1N1C(=O)CC(=O)NC1=O`, the Kd is > 4 mM (inactive). For the compound `C/C1=C\CCC(=O)C2CC(C)(C)C2CC1` (stereo unspecified), the Kd was > 4 mM (inactive). Turning to `CC(O)(C(=O)O)c1ccccc1` (stereo unspecified), the Kd was > 4 mM (inactive).

For the compound `CC(C)=CCCC1(C)C=Cc2c(O)c3c(c(CC=C(C)C)c2O1)OC12C(=CC4CC1C(C)(C)OC2(C/C=C(/C)C(=O)O)C4=O)C3=O` (stereo unspecified), the Kd is > 4 mM (inactive).

As to `CCOC(=O)c1c(SC)nc(=O)[nH]c1C`, the Kd is > 4 mM (inactive). The same measure for `O=C(Nc1ccccc1)Nc1ccccc1`: > 4 mM (inactive); for `Cc1cc(C(=O)Nc2ccc3c(c2)OCO3)cs1`: > 4 mM (inactive).
